Results on three compounds are retold here after patent US6992111B2, “Fungicide” (Valent BioSciences Corporation, priority 2003, dated 2006).

In one series the test system is Sclerotinia sclerotiorum. Description: Contact evaluation (microtiter plate fungal growth). The class given is cell-based. The conditions noted are these: Sclerotinia sclerotionum. How it is done:
Contact Evaluation. Compound solution: Contact evaluations were conducted to determine the anti-fungal activity of each compound against Botrytis cinerea, Sclerotinia sclerotiorum, Pythium aphanidermatum, Rhizoctonia solani, Cercospora arachidicola, Mycosphaerella fijiensis, and Monilinia laxa. Five milligrams of each compound were dissolved in 0.5 milliliter of DMSO for a compound stock solution of 1.0% w/v. Compound stock solutions were serial diluted with DMSO to 20, 10, and 2 ppm final well concentration. Fungi preparation: Botrytis cinerea spores were taken from 6-week-old cultures grown at 22 C on full strength potato dextrous agar (PDA) plates. Sclerotinia sclerotiorum, Pythium aphanidermatum, Rhizoctonia solani, and Monilinia laxa mycelia were taken from 4- to 10-day-old shake flask cultures grown at room temperature on full strength potato dextrous broth (PDB). Cercospora arachidicola mycelia were taken from 10- to 14-day-old shake flask cultures grown at room temperature on a full strength PDB amended with peanut oil. Mycosphaerella fijiensis mycelia were taken from 10- to 14-day-old shake flask cultures grown at room temperature on V8 juice broth. Sclerotinia sclerotiorum, Pythium aphanidermatum, Rhizoctonia solani, Cercospora arachidicola, and Mycosphaerella fijiensis mycelia (0.4 g mycelia) were blended for 45 seconds in 20 mL sterile de-ionized water. Monilinia laxa mycelia (1 g mycelia) was blended for 45 seconds in 30 mL of sterile de-ionized water. Botrytis cinerea spores were diluted with quarter strength PDB to 1×10^5 spores/mL final well concentration. All mycelia were diluted in water (1:5 mycelia:water) before distributing into the wells. Microtiter plate preparation: Compound solution (10:L), quarter strength PDB (900:L) and fungi preparation (100:L) were sequentially distributed into 48-well microtiter plates (n=3 replications/compound/rate). A blank consisted of quarter strength PDB and fungi preparation. Commercial fungicide controls (100 ppm diluted with water) consisted of Scala for Botrytis cinerea, Dithane F-45 for Mycosphaerella fijiensis, and Benlate for Sclerotinia sclerotiorum, Pythium aphanidermatum, Rhizoctonia solani, Cercospora arachidicola, and Monilinia laxa. Plates were shaken in a circular rotator at room temperature for 20 minutes, then incubated at 25C for 24 to 72 hours, depending on the pathogen. Fungal control ratings: Fungal growth in wells containing the compounds were compared to the positive control and fungal inhibition was rated as full, partial, or none. Final readings were the average of the three wells (Table 1).

The subject of series [1] is Phaseolus vulgaris (Bush bean cv. Blue Lake 274) leaves. The series is described as follows: Detached bean leaf bioassay, phytotoxicity rating. The class given is in vivo. The method, then: Detached Bean Leaf Bioassay Compound solution: Compound solutions were prepared by diluting compound stock solutions (1.0% w/v compound in DMSO) to 200 ppm with 0.01% w/v Triton X-100. Plant material: Middle trifoliate leaves of greenhouse grown Phaseolus vulgaris (Bush bean cv. Blue Lake 274) were excised and placed on a plastic grid above a tray containing moist towels. Treatment method: One half of the adaxial surface of the leaf was treated with the compound solution (100:L) using a 3 cm Bacti Cell Spreader. A blank consisted of 0.01% w/v Triton X-100. A commercial fungicide control (200 ppm diluted with water) consisted of Scala. After the solutions dried, the trays containing the leaves were covered and held one day in a growth chamber (22 C). The adaxial surfaces of the leaves were then inoculated with 5–60:L droplets of Botrytis cinerea spore solution. Phytotoxicity ratings: Phytotoxicity was rated as 0=no phytotoxicity, 1=slight phytotoxicity, 2=moderate phytotoxicity, or 3=excessive phytotoxicity (Table 2).

In series [2] the test system is Botrytis cinerea. Description: Detached bean leaf bioassay, fungal control. Type of series: in vivo. Particulars: 200 ppm on detached bean leaf; 100 minus percent necrotic area, three days after inoculation. The method, then:
Detached Bean Leaf Bioassay
Compound solution: Compound solutions were prepared by diluting compound stock solutions (1.0% w/v compound in DMSO) to 200 ppm with 0.01% w/v Triton X-100.
Spore solution preparation: Botrytis cinerea spores were taken from 6-week-old cultures grown at 22 C on full strength potato dextrous agar (PDA) plates and harvested in 1:16 frozen orange juice concentrate:water. Botrytis cinerea spore solutions were prepared by diluting spore cultures to 5×10^4 spores/mL with 1:16 frozen orange juice concentrate:water.
Plant material: Middle trifoliate leaves of greenhouse grown Phaseolus vulgaris (Bush bean cv. Blue Lake 274) were excised and placed on a plastic grid above a tray containing moist towels.
Treatment method: One half of the adaxial surface of the leaf was treated with the compound solution (100:L) using a 3 cm Bacti Cell Spreader. A blank consisted of 0.01% w/v Triton X-100. A commercial fungicide control (200 ppm diluted with water) consisted of Scala. After the solutions dried, the trays containing the leaves were covered and held one day in a growth chamber (22 C). The adaxial surfaces of the leaves were then inoculated with 5–60:L droplets of Botrytis cinerea spore solution.
Fungal control rating: Three days after inoculation with Botrytis, the percent necrotic area under the inoculation droplet was determined. Since the areas under the blank (0.01% w/v Triton X-100) were 100% infected, fungal control was expressed as 100 minus the percent necrotic area, and thus 0% infected is 100% fungal control (n=3 leaves/compound, 5 inoculation droplets/leaf, Table 2).

Another series relates to Pythium aphanidermatum. Description: Contact evaluation (microtiter plate fungal growth). Type of series: cell-based. The method, then:
(§1) Compound solution: Contact evaluations were conducted to determine the anti-fungal activity of each compound against Botrytis cinerea, Sclerotinia sclerotiorum, Pythium aphanidermatum, Rhizoctonia solani, Cercospora arachidicola, Mycosphaerella fijiensis, and Monilinia laxa. Five milligrams of each compound were dissolved in 0.5 milliliter of DMSO for a compound stock solution of 1.0% w/v. Compound stock solutions were serial diluted with DMSO to 20, 10, and 2 ppm final well concentration.
(§2) Fungi preparation: Botrytis cinerea spores were taken from 6-week-old cultures grown at 22 C on full strength potato dextrous agar (PDA) plates. Sclerotinia sclerotiorum, Pythium aphanidermatum, Rhizoctonia solani, and Monilinia laxa mycelia were taken from 4- to 10-day-old shake flask cultures grown at room temperature on full strength potato dextrous broth (PDB). Cercospora arachidicola mycelia were taken from 10- to 14-day-old shake flask cultures grown at room temperature on a full strength PDB amended with peanut oil. Mycosphaerella fijiensis mycelia were taken from 10- to 14-day-old shake flask cultures grown at room temperature on V8 juice broth. Sclerotinia sclerotiorum, Pythium aphanidermatum, Rhizoctonia solani, Cercospora arachidicola, and Mycosphaerella fijiensis mycelia (0.4 g mycelia) were blended for 45 seconds in 20 mL sterile de-ionized water. Monilinia laxa mycelia (1 g mycelia) was blended for 45 seconds in 30 mL of sterile de-ionized water. Botrytis cinerea spores were diluted with quarter strength PDB to 1×10^5 spores/mL final well concentration. All mycelia were diluted in water (1:5 mycelia:water) before distributing into the wells.
(§3) Microtiter plate preparation: Compound solution (10:L), quarter strength PDB (900:L) and fungi preparation (100:L) were sequentially distributed into 48-well microtiter plates (n=3 replications/compound/rate). A blank consisted of quarter strength PDB and fungi preparation. Commercial fungicide controls (100 ppm diluted with water) consisted of Scala for Botrytis cinerea, Dithane F-45 for Mycosphaerella fijiensis, and Benlate for Sclerotinia sclerotiorum, Pythium aphanidermatum, Rhizoctonia solani, Cercospora arachidicola, and Monilinia laxa. Plates were shaken in a circular rotator at room temperature for 20 minutes, then incubated at 25C for 24 to 72 hours, depending on the pathogen.
(§4) Fungal control ratings: Fungal growth in wells containing the compounds were compared to the positive control and fungal inhibition was rated as full, partial, or none. Final readings were the average of the three wells (Table 1).

Series [3] concerns Botrytis cinerea. The description is as above. The class given is cell-based. How it is done: as §1, §2, §3, §4
The test system of a further series is Cercospora arachidicola. Described as above. Type of series: cell-based. How it is done: as §1, §2, §3, §4
In another series the test system is Mycosphaerella fijiensis. The description is as above. Type of series: cell-based. How it is done:
as §1, §2, §3, §4

The next series relates to Rhizoctonia solani. Described as above. The class given is cell-based. The conditions noted are these: Rhizoctinia solani. How it is done:
as §1, §2, §3, §4

Another series has as its system Monilinia laxa. Described as above. Type of series: cell-based. How it is done:
as §1, §2, §3, §4

As for `O=[N+]([O-])c1ccc(O)c(-c2ccc(C(F)(F)F)cc2)c1` [X = CF3], the “Control of fungi (full, partial, none)” value in the series with Sclerotinia sclerotiorum (fungicide rate 2 ppm), in the series with Sclerotinia sclerotiorum (fungicide rate 10 ppm), in the series on Sclerotinia sclerotiorum (fungicide rate 20 ppm), in the series with Pythium aphanidermatum (fungicide rate 2 ppm), in the series on Pythium aphanidermatum (fungicide rate 10 ppm) and in the series with Pythium aphanidermatum (fungicide rate 20 ppm) was “Full” in each case. The “Control of fungi (full, partial, none)” value in the series on Botrytis cinerea [3] (fungicide rate 2 ppm), in the series on Botrytis cinerea [3] (fungicide rate 10 ppm), in the series on Botrytis cinerea [3] (fungicide rate 20 ppm), in the series on Cercospora arachidicola (fungicide rate 2 ppm), in the series with Cercospora arachidicola (fungicide rate 10 ppm) and with Cercospora arachidicola (fungicide rate 20 ppm) was “Full” each time. Further, the “Control of fungi (full, partial, none)” value in the series with Mycosphaerella fijiensis (fungicide rate 2 ppm) is reported as “Full”; in the series on Mycosphaerella fijiensis (fungicide rate 10 ppm), “Full”; in the series with Mycosphaerella fijiensis (fungicide rate 20 ppm), “Full”; in the series on Rhizoctonia solani (fungicide rate 2 ppm), “Partial”; in the series on Rhizoctonia solani (fungicide rate 10 ppm) it was “Full”; in the series on Rhizoctonia solani (fungicide rate 20 ppm), “Full”. The “Control of fungi (full, partial, none)” value in the series with Monilinia laxa (fungicide rate 2 ppm), in the series with Monilinia laxa (fungicide rate 10 ppm) and in the series with Monilinia laxa (fungicide rate 20 ppm) was “Full” in each case. Moreover, the “Phytotoxity (200 ppm)” value in series [1] is “Moderate”. Also, the “Botrytis cinerea control (200 ppm)” value in the series with Botrytis cinerea [2] is 100%.

With `O=[N+]([O-])c1ccc(O)c(-c2ccc(F)cc2)c1` [X = F], the “Control of fungi (full, partial, none)” value in the series on Sclerotinia sclerotiorum (fungicide rate 2 ppm) is reported as “Full”; in the series with Sclerotinia sclerotiorum (fungicide rate 10 ppm) it was “Full”; with Sclerotinia sclerotiorum (fungicide rate 20 ppm), “Full”; with Pythium aphanidermatum (fungicide rate 2 ppm), “Partial”; with Pythium aphanidermatum (fungicide rate 10 ppm), “Full”; in the series with Pythium aphanidermatum (fungicide rate 20 ppm), “Full”. For the same compound, the “Control of fungi (full, partial, none)” value is listed as “Partial” with Botrytis cinerea [3] (fungicide rate 2 ppm); “Full” with Botrytis cinerea [3] (fungicide rate 10 ppm); “Full” with Botrytis cinerea [3] (fungicide rate 20 ppm); “Full” with Cercospora arachidicola (fungicide rate 2 ppm); “Full” in the series with Cercospora arachidicola (fungicide rate 10 ppm); “Full” in the series on Cercospora arachidicola (fungicide rate 20 ppm). Moreover, the “Control of fungi (full, partial, none)” value is “Full” in the series on Mycosphaerella fijiensis (fungicide rate 2 ppm); “Full” in the series with Mycosphaerella fijiensis (fungicide rate 10 ppm); “Full” in the series on Mycosphaerella fijiensis (fungicide rate 20 ppm); “None” in the series with Rhizoctonia solani (fungicide rate 2 ppm); “Full” in the series on Rhizoctonia solani (fungicide rate 10 ppm); “Full” with Rhizoctonia solani (fungicide rate 20 ppm). Besides, the entries for the “Control of fungi (full, partial, none)” value with Monilinia laxa (fungicide rate 2 ppm), in the series with Monilinia laxa (fungicide rate 10 ppm) and in the series on Monilinia laxa (fungicide rate 20 ppm) were “Partial”, “Full” and “Full”, respectively. The “Phytotoxity (200 ppm)” value in series [1] was “None”. The “Botrytis cinerea control (200 ppm)” value with Botrytis cinerea [2] was 31%.

In the case of `O=[N+]([O-])c1ccc(O)c(-c2ccc(Cl)cc2)c1` [X = Cl], the “Control of fungi (full, partial, none)” value with Sclerotinia sclerotiorum (fungicide rate 2 ppm), in the series with Sclerotinia sclerotiorum (fungicide rate 10 ppm), in the series with Sclerotinia sclerotiorum (fungicide rate 20 ppm), with Pythium aphanidermatum (fungicide rate 2 ppm), in the series with Pythium aphanidermatum (fungicide rate 10 ppm) and in the series on Pythium aphanidermatum (fungicide rate 20 ppm) was “Full” in each case. The “Control of fungi (full, partial, none)” value with Botrytis cinerea [3] (fungicide rate 2 ppm), with Botrytis cinerea [3] (fungicide rate 10 ppm), with Botrytis cinerea [3] (fungicide rate 20 ppm), in the series on Cercospora arachidicola (fungicide rate 2 ppm), in the series with Cercospora arachidicola (fungicide rate 10 ppm) and in the series on Cercospora arachidicola (fungicide rate 20 ppm) was “Full” in each case. The “Control of fungi (full, partial, none)” value in the series on Mycosphaerella fijiensis (fungicide rate 2 ppm), with Mycosphaerella fijiensis (fungicide rate 10 ppm), in the series on Mycosphaerella fijiensis (fungicide rate 20 ppm), in the series with Rhizoctonia solani (fungicide rate 2 ppm), with Rhizoctonia solani (fungicide rate 10 ppm) and with Rhizoctonia solani (fungicide rate 20 ppm) was “Full” throughout. Also, the “Control of fungi (full, partial, none)” value in the series on Monilinia laxa (fungicide rate 2 ppm), with Monilinia laxa (fungicide rate 10 ppm) and with Monilinia laxa (fungicide rate 20 ppm) was “Full” throughout. Besides, in [1], the “Phytotoxity (200 ppm)” value was “Moderate”. The “Botrytis cinerea control (200 ppm)” value in the series with Botrytis cinerea [2] is on record as 97%.
